Laboratory results: PubChem BioAssay (NCI)
Where “and” joins values, the source holds several entries; their conditions need not be identical. Identical values can stand only once.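 How tested: cells in 96-well plates exposed to compound for 48 hours at five concentrations. GI50 = concentration required for 50% inhibition of growth. TGI is the concentration that stops growth completely.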

Assays:
Experiment in all cases: NCI-60 cell line screen, 48 h
SF-295 CNS = test system: SF-295 CNS
HS 578T breast = test system: HS 578T breast
SK-MEL-5 melanoma = test system: SK-MEL-5 melanoma
OVCAR-3 ovarian = test system: OVCAR-3 ovarian
SF-539 CNS = test system: SF-539 CNS
HCT-116 colon = test system: HCT-116 colon
A498 renal = test system: A498 renal
SK-MEL-28 melanoma = test system: SK-MEL-28 melanoma
HOP-92 NSCLC = test system: HOP-92 NSCLC
HOP-62 NSCLC = test system: HOP-62 NSCLC

| SMILES | GI50 (SF-295 CNS) | TGI (SF-295 CNS) | GI50 (HS 578T breast) | TGI (HS 578T breast) | GI50 (SK-MEL-5 melanoma) | TGI (SK-MEL-5 melanoma) | GI50 (OVCAR-3 ovarian) | TGI (OVCAR-3 ovarian) | GI50 (SF-539 CNS) | TGI (SF-539 CNS) | GI50 (HCT-116 colon) | TGI (HCT-116 colon) | GI50 (A498 renal) | TGI (A498 renal) | GI50 (SK-MEL-28 melanoma) | TGI (SK-MEL-28 melanoma) | GI50 (HOP-92 NSCLC) | TGI (HOP-92 NSCLC) | GI50 (HOP-62 NSCLC) | TGI (HOP-62 NSCLC) |
| --- | --- | --- | --- | --- | --- | --- | --- | --- | --- | --- | --- | --- | --- | --- | --- | --- | --- | --- | --- | --- |
| COc1ccc(C[n+]2c3ccccc3n3c4ccc(N)cc4ccc32)c(OC)c1OC | 4.22 µM | 38.1 µM | 5.81 µM | 35.2 µM | 1.44 µM | 7.27 µM | 1.69 µM | 8.97 µM | 2.89 µM | 15.2 µM | 12.6 µM | 83.7 µM | 17.5 µM | 61.9 µM | 1.89 µM | 5.56 µM | 0.571 µM | 3.77 µM | 7.4 µM | 33.1 µM |
| NC1=NC(c2ccc(Cl)cc2)N(c2ccc(S(=O)(=O)Nc3ncccn3)cc2)C(N)=N1 (centres undefined) |  | > 100 µM |  | > 100 µM |  | > 100 µM |  | > 100 µM |  | > 100 µM |  | > 100 µM |  | > 100 µM |  | > 100 µM |  | > 100 µM |  | > 100 µM |
| Cc1oc2nc[nH]c(=O)c2c1C(=O)/C=C/c1ccc(Cl)cc1 | 4.5 µM | 16 µM | 3.66 µM | > 100 µM | 2.25 µM | 5.85 µM | 2.3 µM | 7.83 µM | 2.37 µM | 6.71 µM | 1.59 µM | 3.94 µM | 1.48 µM | 5.83 µM | 2.51 µM | 8.77 µM | 1.47 µM | 7.18 µM | 2.83 µM | 12.6 µM |
| O=c1oc2cc(N=Cc3ccccc3Cl)ccc2c2ccccc12 |  | > 100 µM |  | > 100 µM |  | > 100 µM |  | > 100 µM |  | > 100 µM |  | > 100 µM |  | > 100 µM |  | > 100 µM |  | > 100 µM |  | > 100 µM |
| CCN(CC)C(=O)CC1=C(C)/C(=C/c2[nH]c(-c3ccc[nH]3)cc2OC)N=C1C | 0.361 µM | 1.73 µM | 0.656 µM | 7.97 µM |  |  | 0.509 µM | 14.1 µM | 0.498 µM | 12.2 µM | 0.286 µM | 10.3 µM | 0.98 µM | 7.12 µM |  |  | 0.235 µM | 0.977 µM | 0.504 µM | 11.6 µM |
| COc1cc(NS(C)(=O)=O)ccc1Nc1c2ccccc2nc2c(C)cccc12 | 0.0399 µM and 0.0874 µM | 0.386 µM and 3.46 µM | 0.652 µM and 0.406 µM | 12.8 µM and 6.53 µM | 0.153 µM and 0.218 µM | 1.2 µM and 3.69 µM | 0.794 µM and 0.933 µM | 2.35 µM and 2.94 µM | 0.102 µM and 0.123 µM | 0.699 µM and 0.584 µM | 0.133 µM and 0.16 µM | 2.13 µM and 2.37 µM | 0.0806 µM and 0.0968 µM | 1.03 µM and 1.6 µM | 1.1 µM and 1.33 µM | 7.68 µM and 13.7 µM | 0.0495 µM and 0.104 µM | 1.1 µM and 2.27 µM | 0.104 µM and 0.117 µM | 1.37 µM and 1.34 µM |
| O=C(/C=C/C12c3ccccc3C(c3ccccc31)C1C(=O)N(c3ccccc3)C(=O)C12)c1ccc(Cl)cc1 (centres undefined) |  |  | 1.82 µM | 5.92 µM | 1.95 µM | 4.07 µM |  |  | 1.69 µM | 3.79 µM | 0.537 µM | 2.16 µM | 1.16 µM | 2.44 µM | 1.98 µM | 5.11 µM | 1.33 µM | 3.26 µM | 2.45 µM | 6.86 µM |
| N=Nc1c(OC(=O)Nc2ccccc2)[nH]c2ccccc12 |  | 30.2 µM |  | > 100 µM |  | 51.9 µM |  | 26.7 µM |  | 37.4 µM |  | 31.6 µM |  | 34.7 µM |  | > 100 µM |  | 55.6 µM |  | 36.4 µM |
| CC(=O)Nc1ccc(-c2c3nc(c(-c4cc5ccccc5[n+](C)c4)c4ccc([nH]4)c(-c4ccc(NC(C)=O)cc4)c4nc(c(-c5cc6ccccc6[n+](C)c5)c5ccc2[nH]5)C=C4)C=C3)cc1 | 6.65 µM | 22.5 µM | 22.9 µM | > 50 µM | 21.8 µM | > 50 µM | 2.37 µM | 12.9 µM |  |  | 22 µM | > 50 µM | 5.16 µM | 36.2 µM | 10.5 µM | 29.2 µM | 23.9 µM | > 50 µM | 7.3 µM | 19.5 µM |
| COC1C(O)C(C)OC(OC2C(Oc3cccc4c(O)c5c(=O)oc6ccc(C)c7c(=O)oc(c34)c5c67)OC(C)C3O[C@H](c4ccccc4)OC32)C1O (some centres undefined) |  | 3.97 µM |  | 17.9 µM |  | 1.8 µM |  | 5.31 µM | 0.198 µM | 2.23 µM | 0.0528 µM and 0.0292 µM | 3.64 µM |  | 1.11 µM |  | 3.92 µM | 0.0823 µM | 7.21 µM | 0.15 µM | 2.17 µM |
| O=C(CCN1CCOCC1)Nc1ccc(F)cc1F |  | > 100 µM |  | > 100 µM |  | > 100 µM |  | > 100 µM |  | > 100 µM |  | > 100 µM |  | > 100 µM |  | > 100 µM |  | > 100 µM |  | > 100 µM |
| C=C1C(=O)O[C@H]2[C@H]1CC/C(Cn1cc(CNCCc3c[nH]c4ccc(Cl)cc34)nn1)=C\CC[C@@]1(C)O[C@@H]21 | 30.9 µM | > 100 µM | 11.1 µM | 53.1 µM | 17 µM | 34.9 µM | 2.44 µM | 6.5 µM | 4.23 µM | 14.6 µM | 3.31 µM | 10 µM | 12.8 µM | 34.5 µM | 10.7 µM | 25.2 µM | 1.34 µM | 3.05 µM | 67.5 µM | > 100 µM |
| Cn1cc(C2=C(c3c4n(c5ccccc35)CCCC4)C(=O)NC2=O)c2ccccc21 | 7.21 µM | > 25 µM | 5.13 µM | > 25 µM | 7.94 µM | > 25 µM | 6.43 µM | > 21.6 µM | 10.5 µM | > 25 µM | 11.4 µM | > 25 µM | 5.19 µM | > 25 µM | > 21.8 µM | > 25 µM | 8.89 µM | > 25 µM | > 17.6 µM | > 25 µM |
| CN(CCC#N)c1ccc(/C=C(\C#N)c2cccc(C(F)(F)F)c2)cc1 | 3.87 µM | > 100 µM | 4.3 µM | > 100 µM | 3.23 µM | 30.5 µM | 4.29 µM | > 100 µM | 4.31 µM | > 100 µM | 3.21 µM | > 100 µM | 1.44 µM | 8.89 µM | 6.4 µM | > 100 µM | 3.01 µM | 66.7 µM | 6.2 µM | > 100 µM |
| Cc1cc(=O)oc2c(CN3CCCCC3)c(O)ccc12 |  | > 100 µM |  | > 100 µM |  | > 100 µM |  | > 100 µM |  | > 100 µM |  | > 100 µM |  | > 100 µM |  | > 100 µM |  | > 100 µM |  | > 100 µM |
